Assay: Growth promoting activity / feed utilization in livestock (general statements)
Assay type: in vivo

CC(C)(C)NCC(O)c1ccc(O)c(O)c1 (centres unmarked) [Compound X, Colterol]
growth promoting activity, oral (administered orally): very little activity
growth promoting activity, parenteral (administered parenterally): substantially active

From patent US4847302A, “Use of certain compounds in livestock food as growth promotants for better feed utilization and improved carcass composition” (Merck & Co., Inc., priority 1988, dated 1989)
